Experimental data published in patent US8969554B2, “6-acyl-1,2,4-triazine-3,5-dione derivative and herbicides” (Kumiai Chemical Industry Co., Ltd., priority 2010, dated 2015).

Columns and labels:
Echinochloa oryzicola = test: Herbicidal activity by paddy field soil treatment (Test Example 1); assay type: in vivo; set-up: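 index 0 to 10 in 10% steps of herbicidal effect with 10 meaning complete death and 0 below 10%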; conditions: 1000 g of effective component per hectare, evaluated on day 21 after the treatment, criteria of Table 72
Method in brief: (§1)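 Herbicidal effect is rated on a graded scale 21 days after treatment. Treatment: wettable powder diluted in water, applied onto the flood water (3 cm deep) of sown paddy-soil pots on the day after sowing, 1000 g active component per hectare, greenhouse cultivation.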

Monochoria vaginalis = test: as above; assay type: in vivo; set-up: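 index 0 to 10 in 10% steps of herbicidal effect with 10 meaning complete death and 0 below 10%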; conditions: 1000 g of effective component per hectare, evaluated on day 21 after the treatment, criteria of Table 72
Method in brief: as §1

Scirpus juncoides Rocxb. = test: as above; assay type: in vivo; set-up: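 index 0 to 10 in 10% steps of herbicidal effect with 10 meaning complete death and 0 below 10%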; conditions: applied on water surface, 1000 g of effective component per hectare, day 21 after the treatment
Method in brief: as §1

A. retroflexus [1] = test: Herbicidal activity by field soil treatment (Test example 2); assay type: in vivo; set-up: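 index 0 to 10 in 10% steps of herbicidal effect with 10 meaning complete death and 0 below 10%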; conditions: 1000 g effective component per hectare, day 21 after the treatment
Method in brief: (§2)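 Herbicidal effect is rated by fixed criteria on day 21 post-treatment. Before that, pots of field soil holding freshly sown, soil-covered seeds receive a surface spray of diluted wettable powder (1000 g per hectare effective component, spray volume 1000 liters per hectare) and are kept in a greenhouse.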

Echinochloa crus-galli [2] = test: as above; assay type: in vivo; set-up: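 index 0 to 10 in 10% steps of herbicidal effect with 10 meaning complete death and 0 below 10%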; conditions: 1000 g effective component per hectare, day 21 after the treatment
Method in brief: as §2

Indian millet [3] = test: as above; assay type: in vivo; set-up: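 index 0 to 10 in 10% steps of herbicidal effect with 10 meaning complete death and 0 below 10%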; conditions: 1000 g effective component per hectare, day 21 after the treatment
Method in brief: as §2

foxtail = test: as above; assay type: in vivo; conditions: 1000 g effective component per hectare, day 21 after the treatment;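 note: index 0 to 10 in 10% steps of herbicidal effect with 10 meaning complete death and 0 below 10%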
Method in brief: as §2

A. retroflexus [4] = test: Herbicidal activity by field foliage treatment (Test example 3); assay type: in vivo; set-up: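 index 0 to 10 in 10% steps of herbicidal effect with 10 meaning complete death and 0 below 10%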; conditions: 1000 g effective component per hectare, day 14 after the treatment
Method in brief: (§3)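 Herbicidal effect is rated on a scoring scale 14 days after treatment. Seedlings raised 2 weeks in field soil under glass receive an overall foliar spray of wettable powder diluted in water, giving 1000 g active component per hectare.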

Indian millet [5] = test: as above; assay type: in vivo; set-up: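 index 0 to 10 in 10% steps of herbicidal effect with 10 meaning complete death and 0 below 10%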; conditions: 1000 g effective component per hectare, day 14 after the treatment
Method in brief: as §3

Echinochloa crus-galli [6] = test: as above; assay type: in vivo; set-up: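 index 0 to 10 in 10% steps of herbicidal effect with 10 meaning complete death and 0 below 10%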; conditions: 1000 g effective component per hectare, day 14 after the treatment
Method in brief: (§4)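 Potted field-soil plants grown 2 weeks in a greenhouse were sprayed over the whole foliage with diluted wettable powder at 1000 L/ha, delivering 1000 g active ingredient per hectare. Herbicidal effect scored by visual criteria 14 days after treatment.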

Setaria viridis = test: as above; assay type: in vivo; conditions: 1000 g effective component per hectare, day 14 after the treatment;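 note: index 0 to 10 in 10% steps of herbicidal effect with 10 meaning complete death and 0 below 10%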
Method in brief: as §4

SMILES | melting point | Herbicidal effects index number, Echinochloa oryzicola (Echinochloa oryzicola) | Herbicidal effects index number, Monochoria vaginalis (Monochoria vaginalis) | herbicidal effect index, S. juncoides Rocxb. (Scirpus juncoides Rocxb.) | herbicidal effect index, Amaranthus retroflexus (A. retroflexus [1]) | herbicidal effect index, Echinochloa crus-galli (Echinochloa crus-galli [2]) | herbicidal effect index, Abutilon theophrasti (Indian millet [3]) | herbicidal effect index, Setaria viridis (foxtail) | herbicidal effect index, Amaranthus retroflexus (A. retroflexus [4]) | herbicidal effect index, Abutilon theophrasti (Indian millet [5]) | herbicidal effect index, Echinochloa crus-galli (Echinochloa crus-galli [6]) | herbicidal effect index, Setaria viridis (Setaria viridis)
Cn1nc(C(=O)O)c(=O)n(-c2ccccc2C#N)c1=O [V-72, 2-methyl-3,5-dioxo-4-(2-cyanophenyl)-2,3,4,5-tetrahydro-1,2,4-triazine-6-carboxylic acid] | 213 to 215 °C | – | – | – | – | – | – | – | – | – | – | –
Cn1nc(C(=O)C2=C(O)CCCC2=O)c(=O)n(N2CCOCC2)c1=O [I-202] | – | 10 | 10 | 10 | 10 | 10 | 9 | 9 | 9 | 9 | 9 | 9
Cn1nc(C(=O)O)c(=O)n(-c2ccccc2)c1=O [V-50, 2-methyl-3,5-dioxo-4-phenyl-2,3,4,5-tetrahydro-1,2,4-triazine-6-carboxylic acid] | 195 to 198 °C | – | – | – | – | – | – | – | – | – | – | –
